Data reported in ChEMBL document CHEMBL1201862, “PubChem BioAssay data set” (2004).
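Dose response: 5 concentrations. Exposure: 48 h. Format: 96-well plates. Endpoint: linear interpolation; highest concentration if not reached. GI50 marks 50% less growth.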 Calls of active or inactive are those of the source. Rule as the data show it: active = GI50 up to about 1.1 µM and inactive = higher.

Experiments:
Assay in all cases: growth of human tumour cells (NCI), 48 h
786-0 = test system: 786-0
CCRF-CEM = test system: CCRF-CEM
COLO 205 = test system: COLO 205
HCT-15 = test system: HCT-15
HL-60 = test system: HL-60
HOP-62 = test system: HOP-62
HOP-92 = test system: HOP-92
HT-29 = test system: HT-29
IGROV-1 = test system: IGROV-1
LOX IMVI = test system: LOX IMVI
M14 = test system: M14
NCI-H522 = test system: NCI-H522
OVCAR-4 = test system: OVCAR-4
SF-539 = test system: SF-539
SK-MEL-5 = test system: SK-MEL-5
SN12C = test system: SN12C
SNB-75 = test system: SNB-75
UACC-257 = test system: UACC-257
UACC-62 = test system: UACC-62
UO-31 = test system: UO-31

SMILES | GI50 (786-0) | GI50 (CCRF-CEM) | GI50 (COLO 205) | GI50 (HCT-15) [µM] | GI50 (HL-60) | GI50 (HOP-62) | GI50 (HOP-92) | GI50 (HT-29) | GI50 (IGROV-1) | GI50 (LOX IMVI) | GI50 (M14) | GI50 (NCI-H522) | GI50 (OVCAR-4) | GI50 (SF-539) | GI50 (SK-MEL-5) | GI50 (SN12C) | GI50 (SNB-75) | GI50 (UACC-257) | GI50 (UACC-62) | GI50 (UO-31)
CC1OC(n2cc(F)c(=O)[nH]c2=O)CCC1O (stereo not drawn) | > 100 µM (inactive) | > 100 µM (inactive) | > 87.1 µM (inactive) | > 94.4 | > 79.4 µM (inactive) | > 87.1 µM (inactive) | > 100 µM (inactive) | 98.9 µM (inactive) | > 100 µM (inactive) | > 100 µM (inactive) | > 91.4 µM (inactive) | > 95.1 µM (inactive) | > 100 µM (inactive) | 29.2 µM (inactive) | > 56.2 µM (inactive) | > 100 µM (inactive) | > 72.9 µM (inactive) | > 100 µM (inactive) | > 100 µM (inactive) | 85.3 µM (inactive)
CC(CO)(CO)N1C(=O)C2C3C=CC(C3)C2C1=O (stereo not drawn) | > 100 µM (inactive) | > 100 µM (inactive) | > 100 µM (inactive) | > 100 | > 100 µM (inactive) | > 100 µM (inactive) | > 100 µM (inactive) | > 100 µM (inactive) | > 100 µM (inactive) | > 100 µM (inactive) | > 100 µM (inactive) | > 100 µM (inactive) | > 100 µM (inactive) | > 100 µM (inactive) | > 100 µM (inactive) | > 100 µM (inactive) | > 100 µM (inactive) | > 100 µM (inactive) | > 100 µM (inactive) | > 100 µM (inactive)
CC(C)=C[C@@H]1C[C@H](C)[C@H]2CC[C@H](C)[C@H]3C(=O)C(O)=C(C)C(=O)[C@]123 | > 100 µM (inactive) | 99.1 µM (inactive) | > 100 µM (inactive) | > 100 | > 100 µM (inactive) | > 100 µM (inactive) | 42.7 µM (inactive) | > 100 µM (inactive) | > 100 µM (inactive) | > 100 µM (inactive) | > 100 µM (inactive) | 48.1 µM (inactive) | 90.8 µM (inactive) | > 100 µM (inactive) | > 100 µM (inactive) | > 100 µM (inactive) | > 100 µM (inactive) | > 100 µM (inactive) | > 100 µM (inactive) | > 100 µM (inactive)
CCC(Sc1cc(Cl)c(C)cc1S(=O)(=O)Nc1nc(N)nc(N(C)C)n1)C(=O)O (stereo not drawn) | > 10 µM (inactive) | > 10 µM (inactive) | > 10 µM (inactive) | > 10 | > 10 µM (inactive) | > 10 µM (inactive) | > 10 µM (inactive) | > 10 µM (inactive) | > 10 µM (inactive) | > 10 µM (inactive) | > 10 µM (inactive) | > 10 µM (inactive) | > 10 µM (inactive) | > 10 µM (inactive) | > 10 µM (inactive) | > 10 µM (inactive) | > 10 µM (inactive) | > 10 µM (inactive) |  | > 10 µM (inactive)
CC(=O)n1nnc2ccc([N+](=O)[O-])cc21 | > 100 µM (inactive) | > 100 µM (inactive) | > 100 µM (inactive) |  | > 100 µM (inactive) | > 100 µM (inactive) | > 100 µM (inactive) | > 100 µM (inactive) | > 100 µM (inactive) | > 100 µM (inactive) | > 100 µM (inactive) | > 100 µM (inactive) | > 100 µM (inactive) | > 100 µM (inactive) | > 100 µM (inactive) | > 100 µM (inactive) | > 100 µM (inactive) | > 100 µM (inactive) | > 100 µM (inactive) | > 100 µM (inactive)
